biological target: T1, human GPR91 receptor (Homo sapiens, UniProt Q9BXA5); test: Human GPR91 calcium mobilization assay; assay type: cell-based; details: CHO-K1 NFAT cells over expressing human GPR91 receptor; Fluo4 AM; agonist sodium succinate; flex station; read-out: hGPR91 IC50 (μM)*
T1 construct: expressed in transfected cells; host or cells: CHO-K1 NFAT cells
T1 sequence (Q9BXA5 1-334): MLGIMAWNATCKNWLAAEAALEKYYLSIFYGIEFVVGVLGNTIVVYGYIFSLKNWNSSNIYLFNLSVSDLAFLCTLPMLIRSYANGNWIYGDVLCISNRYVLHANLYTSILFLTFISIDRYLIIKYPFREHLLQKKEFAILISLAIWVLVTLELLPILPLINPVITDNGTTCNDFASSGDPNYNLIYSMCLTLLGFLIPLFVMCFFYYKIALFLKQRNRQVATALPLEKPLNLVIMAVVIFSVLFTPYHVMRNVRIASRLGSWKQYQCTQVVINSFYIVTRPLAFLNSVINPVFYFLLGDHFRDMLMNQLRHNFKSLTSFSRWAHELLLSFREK
Experimental: Human GPR91 Calcium Mobilization Assay
To determine IC50 in CHO NFAT cells over expressing human GPR91 receptor calcium mobilization assay in flex station mode was carried out.
Grow CHO-K1 NFAT cells over expressing human GPR91 receptors in alpha MEM media were supplemented with 10% FBS (heat inactivated), 0.5 mg/ml of G-418, 0.5 mg/ml of Zeocin and 0.6 mg/ml of Hygromycin B.
The cells were seeded at least 21 hours before the experiment at the density of 25000/well in 96 well plate (Corning cat #no. 3603). It was made sure that cells were at least 95% confluent on the day of assay. No antibiotics were used for seeding purpose.
On the day of assay the media was discarded from plates and plates were washed with 100 μl of HBSS assay buffer. The plates were loaded with Fluo4 AM at 2 μM concentration. Pluronic F-127 dye was solubilized in calcium assay buffer containing 0.1% BSA, i.e., 20 μl dye+20 μl Pluronic F127 for 10 ml. Appropriate amounts of 100× probenecid was added to the loading mixture 1× final (100 μl per 10 ml). Total volume of dye loaded was made 100 μl. The plate was then wrapped in aluminium foil to protect from light and were incubated for 90 mins at 37 degrees in cell culture incubator. At the end of incubation the plates was washed again with 100 μl of HBSS buffer without BSA and 75 μl of HBSS buffer was added (without BSA) to the plate.
Further, 8 point-Dose response curve of the compounds of the present disclosure was prepared in 100% DMSO followed by 57.14-fold dilution to 1.75× in 1.75% DMSO in assay buffer. 100 μL of 1.75×NCE was added to the wells as shown below and incubated at room temp on orbital shaker at 300 rpm for 15 min. Flexstation [excitation @ 485 nm and emission @ 525 nm] for a total time of 60 seconds. 25 μL of 8× agonist (800 μM sodium succinate) was added to each well using the flexstation after establishing the baseline for 20 sec, Measurement—Max-Min over 60 sec. Using the above protocol results obtained are tabulate din the Table 1 below: […]

SMILES	IC50 [µM]
Cc1nccc2cccc(Oc3ccc(Oc4cccc(CC(=O)O)c4)c(C(F)(F)F)c3)c12 [Compound A-41, 2-[3-[4-[(1-methyl-8-isoquinolyl)oxy]-2-(trifluoromethyl)phenoxy]phenyl]acetic Acid]	< 5
O=C(O)CCc1cccc(Oc2ccc(OC3CCc4ccccc43)cc2C(F)(F)F)c1 (stereo not shown) [Compound A-44, 3-[3-[4-indan-1-yloxy-2-(trifluoromethyl)phenoxy]phenyl]propanoic acid]	5 to 10
FC(F)(F)c1cc(Oc2cccc3ccncc23)ccc1Oc1cccc(CCc2nnn[nH]2)c1 [Compound D-2, 8-[4-[3-[2-(1H-tetrazol-5-yl)ethyl]phenoxy]-3-(trifluoromethyl)phenoxy]isoquinoline]	5 to 10
O=C(O)Cc1cccc(Oc2ccc(Oc3cccc4nncn34)cc2C(F)(F)F)c1 [Compound A-17, 2-[3-[4-([1,2,4]triazolo[4,3-a]pyridin-5-yloxy)-2-(trifluoromethyl)phenoxy]phenyl]acetic acid]	> 10
O=C(O)Cc1cccc(Oc2ccc(Oc3ccc4ncn(C5COC5)c4c3)cc2C(F)(F)F)c1 [Compound A-26, 2-[3-[4-[3-(oxetan-3-yl)benzimidazol-5-yl]oxy-2-(trifluoromethyl)phenoxy]phenyl]acetic acid]	< 5
O=C(O)Cc1cccc(Oc2ccc(Oc3cccc4ccncc34)c(C(F)(F)F)c2)c1 [Compound E-1, 2-[3-[4-(8-isoquinolyloxy)-3-(trifluoromethyl)phenoxy]phenyl]acetic acid]	> 10
O=C(O)Cc1cccc(Oc2ccc(Oc3cccc4[nH]ncc34)cc2C(F)(F)F)c1 [Compound A-48, 2-[3-[4-(1H-indazol-4-yloxy)-2-(trifluoromethyl)phenoxy]phenyl]acetic acid]	< 5
Cc1ncc2c(Oc3ccc(Oc4cccc(CC(=O)O)c4)c(C(F)(F)F)c3)cccn12 [Compound B-4, 2-[3-[4-(3-methylimidazo[1,5-a]pyridin-8-yl)oxy-2-(trifluoromethyl)phenoxy]phenyl]acetic acid]	5 to 10
O=C(O)Cc1cccc(Oc2ccc(Oc3ccc(F)c4ccncc34)cc2C(F)(F)F)c1 [Compound A-8, 2-[3-[4-[(5-fluoro-8-isoquinolyl)oxy]-2-(trifluoromethyl)phenoxy]phenyl]acetic acid]	< 5
Cn1ncc2cccc(Oc3ccc(Oc4cccc(CC(=O)O)c4)c(C(F)(F)F)c3)c21 [Compound A-5, 2-[3-[4-(1-methylindazol-7-yl)oxy-2-(trifluoromethyl)phenoxy]phenyl]acetic acid]	< 5
Cc1nc2ccc(Oc3ccc(Oc4cccc(CC(=O)O)c4)c(C4CC4)c3)cc2n1C1COC1 [Compound A-39, 2-[3-[2-cyclopropyl-4-[2-methyl-3-(oxetan-3-yl)benzimidazol-5-yl]oxy-phenoxy]phenyl]acetic acid]	< 5
O=C(O)Cc1cccc(Oc2ccc(Oc3cccc4ccncc34)cc2C2CC2)c1 [Compound A-38, 2-[3-[2-cyclopropyl-4-(8-isoquinolyloxy)phenoxy]phenyl]acetic acid]	< 5
O=C(O)Cc1cccc(Oc2ccc(Oc3ccc4c(c3)NCCO4)cc2C(F)(F)F)c1 [Compound A-18, 2-[3-[4-(3,4-dihydro-2H-1,4-benzoxazin-6-yloxy)-2-(trifluoromethyl)phenoxy]phenyl]acetic acid]	< 5
O=C(O)Cc1cccc(Oc2ccc(Oc3ccc4[nH]nc(C(=O)O)c4c3)cc2C(F)(F)F)c1 [Compound A-47, 5-[4-[3-(carboxymethyl)phenoxy]-3-(trifluoromethyl)phenoxy]-1H-indazole-3-carboxylic acid]	< 5
O=C(O)Cc1cccc(Oc2ccc(Oc3ccc4ccn(C5COC5)c4c3)cc2C(F)(F)F)c1 [Compound A-20, 2-[3-[4-[1-(oxetan-3-yl)indol-6-yl]oxy-2-(trifluoromethyl)phenoxy]phenyl]acetic acid]	< 5
O=C(O)Cc1cccc(Oc2ccc(Oc3ccc(Cl)c4cnncc34)cc2C(F)(F)F)c1 [Compound A-4, 2-[3-[4-(8-chlorophthalazin-5-yl)oxy-2-(trifluoromethyl)phenoxy]phenyl]acetic acid]	< 5
O=C(O)CCc1ccc(Oc2ccc(Oc3cccc4ccncc34)cc2C(F)(F)F)cc1 [Compound A-34, 3-[4-[4-(8-isoquinolyloxy)-2-(trifluoromethyl)phenoxy]phenyl]propanoic acid]	< 5
O=C(O)Cc1cccc(Oc2ncc(Oc3cccc4ccncc34)cc2C(F)(F)F)c1 [Compound A-36, 2-[3-[[5-(8-isoquinolyloxy)-3-(trifluoromethyl)-2-pyridyl]oxy]phenyl]acetic acid]	< 5
O=C(O)Cc1cccc(Oc2ccc(Oc3cccc4cnncc34)cc2C(F)(F)F)c1 [Compound A-2, 2-[3-[4-phthalazin-5-yloxy-2-(trifluoromethyl)phenoxy]phenyl]acetic acid]	< 5
O=C(O)Cc1cccc(Oc2ccc(Oc3ccc4cnc(C(=O)O)n4c3)cc2C(F)(F)F)c1 [Compound A-31, 6-[4-[3-(carboxymethyl)phenoxy]-3-(trifluoromethyl)phenoxy]imidazo[1,5-a]pyridine-3-carboxylic acid]	< 5
Cc1ncc2cccc(Oc3ccc(Oc4cccc(CC(=O)O)c4)c(C(F)(F)F)c3)n12 [Compound B-3, 2-[3-[4-(3-methylimidazo[1,5-a]pyridin-5-yl)oxy-2-(trifluoromethyl)phenoxy]phenyl]acetic acid]	< 5
O=C(O)CCc1cccc(Oc2ccc(Oc3ccnc4ccccc34)cc2C(F)(F)F)c1 [Compound A-13, 3-[3-[4-(4-quinolyloxy)-2-(trifluoromethyl)phenoxy]phenyl]propanoic acid]	> 10
Cc1nc2ccc(Oc3ccc(Oc4cccc(CC(=O)O)c4)c(C(F)(F)F)c3)cc2n1C1COC1 [Compound A-27, 2-[3-[4-[2-methyl-3-(oxetan-3-yl)benzimidazol-5-yl]oxy-2-(trifluoromethyl)phenoxy]phenyl]acetic acid]	< 5
O=C(O)CCc1cccc(Oc2ccc(Oc3cccc4c3CNCC4)cc2C(F)(F)F)c1 [Compound A-43, 3-[3-[4-(1,2,3,4-tetrahydroisoquinolin-8-yloxy)-2-(trifluoromethyl)phenoxy]phenyl]propanoic acid]	> 10
O=C(O)CCc1cccc(Oc2ccc(Oc3cccc4ccncc34)cc2C(F)(F)F)c1 [Compound A-42, 3-[3-[4-(8-isoquinolyloxy)-2-(trifluoromethyl)phenoxy]phenyl]propanoic acid]	< 5
O=C(O)CCc1cccc(Oc2ccc(Oc3cccc4c3OCCO4)cc2C(F)(F)F)c1 [Compound A-11, 3-[3-[4-(2,3-dihydro-1,4-benzodioxin-5-yloxy)-2-(trifluoromethyl)phenoxy]phenyl]propanoic acid]	> 10
O=C(O)Cc1cccc(Oc2ccc(Oc3ccc4cnn(C5COC5)c4c3)cc2C(F)(F)F)c1 [Compound A-21, 2-[3-[4-[1-(oxetan-3-yl)indazol-6-yl]oxy-2-(trifluoromethyl)phenoxy]phenyl]acetic acid]	< 5
O=C(O)Cc1cccc(Oc2ccc(Oc3ccc4ncccc4c3)cc2C(F)(F)F)c1 [Compound A-6, 2-[3-[4-(6-quinolyloxy)-2-(trifluoromethyl)phenoxy]phenyl]acetic acid]	5 to 10

Reference: patent US11098026B2, “Fused bicyclic compounds, compositions and applications thereof” (IMPETIS BIOSCIENCES LIMITED, priority 2017, dated 2021)
